Columns and labels:
human A2A receptors = human A2A receptors (Homo sapiens (Human), UniProt P29274); experiment: A2A antagonism in cAMP cell-based assay (LANCE cAMP, HEK293); details: HEK293 cells expressing human A2A receptor
How it was run: (§1)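 HEK293 cells expressing human A2A or A2B, in HBSS/5 mM HEPES/200 nM rolipram, were preincubated with compound (0.5–10,000 nM, 0.25% DMSO) 30 min at 37° C. Adenosine was then added from 300 nM (A2A) or 600 nM (A2B) solution for 30 min.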

human A2B receptors = human A2B receptors (Homo sapiens (Human), UniProt P29275); experiment: A2B antagonism in cAMP cell-based assay (LANCE cAMP, HEK293); details: HEK293 cells expressing human A2B receptor; for A2B cAMP % Inh. @10000 nM: at 10000 nM
human A2B receptors, sequence (P29275 whole entry): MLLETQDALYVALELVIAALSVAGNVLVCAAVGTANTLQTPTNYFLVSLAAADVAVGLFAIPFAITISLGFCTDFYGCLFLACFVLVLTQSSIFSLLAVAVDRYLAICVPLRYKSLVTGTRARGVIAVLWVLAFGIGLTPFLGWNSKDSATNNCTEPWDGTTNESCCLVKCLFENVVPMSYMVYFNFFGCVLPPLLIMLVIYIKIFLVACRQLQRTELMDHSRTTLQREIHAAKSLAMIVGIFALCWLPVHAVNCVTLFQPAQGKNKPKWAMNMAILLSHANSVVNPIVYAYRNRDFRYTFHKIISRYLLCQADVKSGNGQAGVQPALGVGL
How it was run: as §1

human A2A receptors, sequence (P29274 whole entry): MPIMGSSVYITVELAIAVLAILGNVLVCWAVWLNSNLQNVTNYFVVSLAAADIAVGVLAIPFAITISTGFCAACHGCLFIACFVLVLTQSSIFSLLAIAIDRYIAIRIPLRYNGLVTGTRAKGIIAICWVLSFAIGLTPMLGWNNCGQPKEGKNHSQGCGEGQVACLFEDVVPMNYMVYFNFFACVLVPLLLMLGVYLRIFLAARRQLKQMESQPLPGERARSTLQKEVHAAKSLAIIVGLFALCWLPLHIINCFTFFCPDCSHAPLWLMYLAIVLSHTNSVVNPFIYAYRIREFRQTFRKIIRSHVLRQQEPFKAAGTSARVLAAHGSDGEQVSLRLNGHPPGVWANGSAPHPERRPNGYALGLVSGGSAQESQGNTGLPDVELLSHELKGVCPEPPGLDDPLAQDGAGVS

In the case of `Cc1nn(C(C)C(C)O)cc1N1CC(C)CC(c2nc3c4cc(F)cc(F)c4nc(N)n3n2)C1` (single isomer, unassigned) [Example 212, (2S,3S or 2R,3R)-3-(4-((3R,5S or 3S,5R)-3-(5-amino-7,9-difluoro-[1,2,4]triazolo[1,5-c]quinazolin-2-yl)-5-methylpiperidin-1-yl)-3-methyl-1H-pyrazol-1-yl)butan-2-ol], the IC50 (human A2A receptors) is reported as 122 nM and the “A2B cAMP % Inh. @10000 nM” value (human A2B receptors) is reported as 27% Inh.

For `COc1cc(F)cc2c1nc(N)n1nc([C@@H]3CCCN(c4cnn(C(C)(C)C(C)O)c4)C3)nc21` (single isomer, unassigned) [Example 245, (S or R)-3-(4-((R)-3-(5-amino-9-fluoro-7 methoxy-[1,2,4]triazolo[1,5-c]quinazolin-2-yl)piperidin-1-yl)-1H-pyrazol-1-yl)-3-methylbutan-2-ol], the IC50 (human A2A receptors) was 2 nM and the IC50 (human A2B receptors) was 25.8 nM.

Work on `COc1cc(F)cc2c1nc(N)n1nc([C@@H]3CCCN(c4cnn(C(C)C(C)O)c4)C3)nc21` (single isomer, unassigned) [Example 202, (2S,3R or 2R,3S)-3-(4-((R)-3-(5-amino-9-fluoro-7-methoxy-[1,2,4]triazolo[1,5-c]quinazolin-2-yl)piperidin-1-yl)-1H-pyrazol-1-yl)butan-2-ol] yielded an IC50 (human A2A receptors) of 1.4 nM and an IC50 (human A2B receptors) of 62.4 nM.

`CC(C)(O)Cn1cc(N2CCC[C@@H](c3nc4c5cc(F)c(OC(F)F)cc5nc(N)n4n3)C2)cn1` [Example 153, (R)-1-(4-(3-(5-amino-8-(difluoromethoxy)-9-fluoro-[1,2,4]triazolo[l,5-c]quinazolin-2-yl)piperidin-l-yl)-1H-pyrazol-1-yl)-2-methylpropan-2-ol] showed an IC50 (human A2A receptors) of 7.4 nM and an IC50 (human A2B receptors) of 720 nM.

Compound `COc1cc2nc(N)n3nc(C4CCC(C)N(c5cnn(C(C)C(C)O)c5)C4)nc3c2cc1F` (single isomer, unassigned) [Example 237, (2R,3S or 2S,3R)-3-(4-((2S,5R or 2R,5S)-5-(5-amino-9-fluoro-8-methoxy-[1,2,4]triazolo[1,5-c]quinazolin-2-yl)-2-methylpiperidin-1-yl)-1H-pyrazol-1-yl)butan-2-ol] has an IC50 (human A2A receptors) of 0.8 nM and an IC50 (human A2B receptors) of 8.7 nM.

With `Cc1nn(C(C)(C)CO)cc1N1CC(C)CC(c2nc3c4cc(F)cc(F)c4nc(N)n3n2)C1` (single isomer, unassigned) [Example 178, 2-(4-((3S,5R or 3R,5S)-3-(5-amino-7,9-difluoro-[1,2,4]triazolo[1,5-c]quinazolin-2-yl)-5-methylpiperidin-1-yl)-3-methyl-1H-pyrazol-1-yl)-2-methylpropan-1-ol] the IC50 (human A2A receptors) was 0.6 nM and the IC50 (human A2B receptors) was 11.5 nM.

With `COc1cc2nc(N)n3nc(C4CC(C)CN(c5cnn(CC(C)(C)O)c5C)C4)nc3c2cc1F` (single isomer, unassigned) [Example 274, 1-((4-((3R,5S or 3S,5R)-5-(5-amino-9-fluoro-8-methoxy-[1,2,4]triazolo[1,5-c]quinazolin-2-yl)-5-methylpiperidin-1-yl)-5-methyl-1H-pyrazol-1-yl)-2-methylpropan-2-ol] the IC50 (human A2A receptors) was 0.7 nM and the IC50 (human A2B receptors) was 70.5 nM.

`COc1cc(F)cc2c1nc(N)n1nc([C@@H]3CCCN(c4cnn(C(C)C(C)O)c4)C3)nc21` (single isomer, unassigned) [Example 186, (2R,3R or 2S,3S)-3-(4-((R)-3-(5-amino-9-fluoro-7-methoxy-[1,2,4]triazolo[1,5-c]quinazolin-2-yl)piperidin-1-yl)-1H-pyrazol-1-yl)butan-2-ol] showed an IC50 (human A2A receptors) of 1 nM and an IC50 (human A2B receptors) of 25.8 nM.

Work on `Cc1c(N2CC(C)CC(c3nc4c5cc(F)cc(F)c5nc(N)n4n3)C2)cnn1C(C)C(C)O` (single isomer, unassigned) [Example 217, (2R,3R or 2S,3S)-3-(4-((3R,5S or 3S,5R)-3-(5-amino-7,9-difluoro-[1,2,4]triazolo[1,5-c]quinazolin-2-yl)-5-methylpiperidin-1-yl)-5-methyl-1H-pyrazol-1-yl)butan-2-ol] yielded an IC50 (human A2A receptors) of 1.1 nM and an IC50 (human A2B receptors) of 161 nM.

In the case of `COc1cc(F)cc2c1nc(N)n1nc(C3CCC(C)N(c4cnn(C(C)(C)C(C)O)c4)C3)nc21` (single isomer, unassigned) [Example 268, (R or S)-3-(4-((2S,5R or 2R,5S)-5-(5-amino-9-fluoro-7-methoxy-[1,2,4]triazolo[1,5-c]quinazolin-2-yl)-2-methylpiperidin-1-yl)-1H-pyrazol-1-yl)-3-methylbutan-2-ol], the IC50 (human A2A receptors) is reported as 0.7 nM and the IC50 (human A2B receptors) is reported as 4.7 nM.

Compound `CC(O)C(C)n1cc(N2CC(c3nc4c5cc(F)cc(F)c5nc(N)n4n3)CCC2C)cn1` (single isomer, unassigned) [Example 232, (2S,3S or 2R,3R)-3-(4-((2S,5R or 2R,5S)-5-(5-amino-7,9-difluoro-[1,2,4]triazolo[1,5-c]quinazolin-2-yl)-2-methylpiperidin-1-yl)-1H-pyrazol-1-yl)butan-2-ol] has an IC50 (human A2A receptors) of 1.3 nM and an IC50 (human A2B receptors) of 12.7 nM.

For `CC1CCC(c2nc3c4cc(F)cc(F)c4nc(N)n3n2)CN1c1cnn(CC(C)(O)CO)c1` (single isomer, unassigned) [Example 257, (S or R)-2-(4-((2S,5R or 2R,5S)-5-(5-amino-7,9-difluoro-[1,2,4]triazolo[1,5-c]quinazolin-2-yl)-2-methylpiperidin-1-yl)-1H-pyrazol-1-yl)-2-methylpropane-1,2-diol], the IC50 (human A2A receptors) was 541 nM and the “A2B cAMP % Inh. @10000 nM” value (human A2B receptors) was 25% Inh.

For `COc1cc2nc(N)n3nc([C@H]4CC[C@@H](C)N(c5cnn([C@H](C)[C@@H](C)O)c5)C4)nc3c2cc1F` (single isomer, unassigned) [Example 230, (2R,3R or 2S,3S)-3-(4-((2R,5S or 2S,5R)-5-(5-amino-9-fluoro-8-methoxy-[1,2,4]triazolo[1,5-c]quinazolin-2-yl)-2-methylpiperidin-1-yl)-1H-pyrazol-1-yl)butan-2-ol], the IC50 (human A2A receptors) was 32.9 nM and the IC50 (human A2B receptors) was 724 nM.

Work on `COc1cc(F)cc2c1nc(N)n1nc(C3CC(C)CN(c4cnn(CC(C)(C)O)c4C)C3)nc21` (single isomer, unassigned) [Example 173, 1-(4-((3R,5S or 3S,5R)-3-(5-amino-9-fluoro-7-methoxy-[1,2,4]triazolo[1,5-c]quinazolin-2-yl)-5-methylpiperidin-1-yl)-5-methyl-1H-pyrazol-1-yl)-2-methylpropan-2-ol] yielded an IC50 (human A2A receptors) of 20.7 nM and an IC50 (human A2B receptors) of 2020 nM.

`CC(O)C(C)n1cc(N2CCC[C@@H](c3nc4c5cc(F)cc(F)c5nc(N)n4n3)C2)cn1` (single isomer, unassigned) [Example 198, (2R,3R or 2S,3S)-3-(4-((R)-3-(5-amino-7,9-difluoro-[1,2,4]triazolo[1,5-c]quinazolin-2-yl)piperidin-1-yl)-1H-pyrazol-1-yl)butan-2-ol] gave an IC50 (human A2A receptors) of 4.3 nM and an IC50 (human A2B receptors) of 52.4 nM.

In the case of `COc1cc(F)cc2c1nc(N)n1nc([C@@H]3CCCN(c4cnn(C(C)C(C)O)c4C)C3)nc21` (single isomer, unassigned) [Example 193, (2S,3S or 2R,3R)-3-(4-((R)-3-(5-amino-9-fluoro-7-methoxy-[1,2,4]triazolo[1,5-c]quinazolin-2-yl)piperidin-1-yl)-5-methyl-1H-pyrazol-1-yl)butan-2-ol], the IC50 (human A2A receptors) is reported as 1.3 nM and the IC50 (human A2B receptors) is reported as 251 nM.

For `COc1cc2nc(N)n3nc(C4CCC(C)N(c5cnn(CC(C)(O)CO)c5)C4)nc3c2cc1F` (single isomer, unassigned) [Example 255], the IC50 (human A2A receptors) was 2.6 nM and the IC50 (human A2B receptors) was 28.8 nM.

In the case of `COc1cc2nc(N)n3nc(C4CCC(C)N(c5cnn(C(C)C(C)O)c5)C4)nc3c2cc1F` (single isomer, unassigned) [Example 239, (2R,3S or 2S,3R)-3-(4-((2R,5S or 2S,5R)-5-(5-amino-9-fluoro-8-methoxy-[1,2,4]triazolo[1,5-c]quinazolin-2-yl)-2-methylpiperidin-1-yl)-1H-pyrazol-1-yl)butan-2-ol], the IC50 (human A2A receptors) is reported as 75.1 nM and the “A2B cAMP % Inh. @10000 nM” value (human A2B receptors) is reported as 10% Inh.

For `COc1cc(F)cc2c1nc(N)n1nc(C3CC(C)CN(c4cn(C(C)(C)CO)nc4C)C3)nc21` (single isomer, unassigned) [Example 175, 2-(4-((3R,5S or 3S,5R)-3-(5-amino-9-fluoro-7-methoxy-[1,2,4]triazolo[1,5-c]quinazolin-2-yl)-5-methylpiperidin-1-yl)-3-methyl-1H-pyrazol-1-yl)-2-methylpropan-1-ol], the IC50 (human A2A receptors) was 30.2 nM and the IC50 (human A2B receptors) was 2000 nM.

`C[C@H]1CC[C@@H](c2nc3c4cc(F)cc(F)c4nc(N)n3n2)CN1c1cnn(C(C)(CO)CO)c1` (single isomer, unassigned) [Example 248, 2-(4-((2S,5R or 2R,5S)-5-(5-amino-7,9-difluoro-[1,2,4]triazolo[1,5-c]quinazolin-2-yl)-2-methylpiperidin-1-yl)-1H-pyrazol-1-yl)-2-methylpropane-1,3-diol] gave an IC50 (human A2A receptors) of 1.4 nM and an IC50 (human A2B receptors) of 8.4 nM.

`CC(O)C(C)n1cc(N2CCC[C@@H](c3nc4c5cc(F)cc(F)c5nc(N)n4n3)C2)cn1` (single isomer, unassigned) [Example 203, (2R,3S or 2S,3R)-3-(4-((R)-3-(5-amino-7,9-difluoro-[1,2,4]triazolo[1,5-c]quinazolin-2-yl)piperidin-1-yl)-1H-pyrazol-1-yl)butan-2-ol] showed an IC50 (human A2A receptors) of 7.7 nM and an IC50 (human A2B receptors) of 53.2 nM.

Compound `COc1cc2nc(N)n3nc([C@H]4C[C@@H](C)CN(c5cn([C@@H](C)[C@H](C)O)nc5C)C4)nc3c2cc1F` (single isomer, unassigned) [Example 211, (2S,3S or 2R,3R)-3-(4-((3S,5R or 3R,5S)-3-(5-amino-9-fluoro-8-methoxy-[1,2,4]triazolo[1,5-c]quinazolin-2-yl)-5-methylpiperidin-1-yl)-3-methyl-1H-pyrazol-1-yl)butan-2-ol] has an IC50 (human A2A receptors) of 89.3 nM and an IC50 (human A2B receptors) greater than 10000 nM.

With `COc1cc(F)cc2c1nc(N)n1nc(C3CCC(C)N(c4cnn(C(C)(C)C(C)O)c4)C3)nc21` (single isomer, unassigned) [Example 271, (S or R)-3-(4-((2R,5S or 2S,5R)-5-(5-amino-9-fluoro-7-methoxy-[1,2,4]triazolo[1,5-c]quinazolin-2-yl)-2-methylpiperidin-1-yl)-1H-pyrazol-1-yl)-3-methylbutan-2-ol] the IC50 (human A2A receptors) was 21.4 nM and the IC50 (human A2B receptors) was 242 nM.
